The target of this assay is T1, SOS1 (Homo sapiens, UniProt Q07889).
T1 sequence (Q07889 1-1333): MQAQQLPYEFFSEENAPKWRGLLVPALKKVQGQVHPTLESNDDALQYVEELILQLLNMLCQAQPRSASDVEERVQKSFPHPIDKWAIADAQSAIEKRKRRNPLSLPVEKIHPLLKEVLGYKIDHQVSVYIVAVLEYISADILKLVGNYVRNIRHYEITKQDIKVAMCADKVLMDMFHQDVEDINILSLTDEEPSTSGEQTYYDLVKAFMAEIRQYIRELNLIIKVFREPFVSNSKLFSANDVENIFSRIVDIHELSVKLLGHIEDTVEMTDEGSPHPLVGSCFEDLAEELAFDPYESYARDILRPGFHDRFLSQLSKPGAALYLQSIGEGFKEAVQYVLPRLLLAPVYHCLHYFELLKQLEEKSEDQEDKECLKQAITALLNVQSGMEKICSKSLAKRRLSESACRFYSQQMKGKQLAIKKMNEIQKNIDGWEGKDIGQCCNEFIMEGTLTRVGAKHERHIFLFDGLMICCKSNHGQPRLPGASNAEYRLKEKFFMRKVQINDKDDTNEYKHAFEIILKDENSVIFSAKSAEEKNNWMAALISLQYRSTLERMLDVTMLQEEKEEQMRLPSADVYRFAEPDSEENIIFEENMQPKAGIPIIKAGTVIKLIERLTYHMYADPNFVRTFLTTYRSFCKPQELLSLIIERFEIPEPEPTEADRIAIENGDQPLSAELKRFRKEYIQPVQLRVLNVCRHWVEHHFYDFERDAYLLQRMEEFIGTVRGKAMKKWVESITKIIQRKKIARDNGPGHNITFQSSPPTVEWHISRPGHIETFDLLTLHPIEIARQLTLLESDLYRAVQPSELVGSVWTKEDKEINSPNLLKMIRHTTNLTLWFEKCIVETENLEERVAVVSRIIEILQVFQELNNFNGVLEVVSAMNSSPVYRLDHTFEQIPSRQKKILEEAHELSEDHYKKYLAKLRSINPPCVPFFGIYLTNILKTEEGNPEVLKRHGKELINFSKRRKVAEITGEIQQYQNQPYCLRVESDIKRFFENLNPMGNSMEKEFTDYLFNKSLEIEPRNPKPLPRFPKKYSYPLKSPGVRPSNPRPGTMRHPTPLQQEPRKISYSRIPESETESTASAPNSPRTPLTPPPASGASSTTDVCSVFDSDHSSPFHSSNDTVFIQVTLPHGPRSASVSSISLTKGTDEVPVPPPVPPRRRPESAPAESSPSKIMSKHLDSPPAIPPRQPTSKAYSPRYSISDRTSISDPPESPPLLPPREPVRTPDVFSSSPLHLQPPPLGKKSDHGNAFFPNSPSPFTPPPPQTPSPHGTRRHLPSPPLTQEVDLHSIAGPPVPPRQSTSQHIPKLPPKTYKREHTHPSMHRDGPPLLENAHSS
The assay is described as follows: biochemical.

Where a name gives a salt, the structure may show the parent alone.

As for `C[C@@H](Nc1nnc(N2CCN(C3CCC3)CC2)c2cc(=O)n(C3(C)CC3)cc12)c1cccc(C(F)(F)F)c1F` [Example 173, (R)-4-((1-(2-fluoro-3-(trifluoromethyl)phenyl)ethyl)amino)-1-(4-cyclobutylpiperazin-1-yl)-6-(1-methylcyclopropyl) pyrido[3,4-d]pyridazin-7(6H)-one], inhibition was half-maximal at 5.3 nM (IC50). This lies in the single-digit nanomolar range.

Take `C[C@@H](Nc1nnc(N2CCN(C)C(=O)C2)c2cc(=O)n(C3(C)CC3)cc12)c1cccc(C(F)(F)F)c1F` [Example 174, (R)-4-((1-(2-fluoro-3-(trifluoromethyl)phenyl)ethyl)amino)-1-(4-methyl-3-oxopiperazin-1-yl)-6-(1-methylcyclopropyl) pyrido[3,4-d]pyridazin-7(6H)-one]: the IC50 (usually the concentration that inhibits the measured activity by half) amounted to 20.2 nM.

As for `C[C@@H](Nc1nnc(N2CC3CC2CO3)c2cc(=O)n(C3(C)CC3)cc12)c1cccc(C(F)(F)F)c1F` (stereo partly drawn) [Example 175, 1-(2-oxa-5-azabicyclo[2.2.1]heptan-5-yl)-4-(((R)-1-(2-fluoro-3-(trifluoromethyl)phenyl)ethyl)amino)-6-(1-methylcyclopropyl) pyrido[3,4-d]pyridazin-7(6H)-one], inhibition was half-maximal at 13 nM (IC50).

For the molecule `C[C@@H](Nc1nnc(N2CC(CO)C2)c2cc(=O)n(C3(C)CC3)cc12)c1cccc(C(F)(F)F)c1` [Example 177, (R)-1-(3-(hydroxymethyl)azetidin-1-yl)-6-(1-methylcyclopropyl)-4-((1-(3-(trifluoromethyl)phenyl)ethyl)amino)pyr ido[3,4-d]pyridazin-7(6H)-one formate], half-maximal inhibition (IC50) was put at 6.2 nM.

`C[C@@H](Nc1nnc(N2CC[C@@H](CO)C2)c2cc(=O)n(C3(C)CC3)cc12)c1cccc(C(F)(F)F)c1` [Example 178, 1-((R)-3-(hydroxymethyl)pyrrolidin-1-yl)-6-(1-methylcyclopropyl)-4-(((R)-1-(3-(trifluoromethyl)phenyl)ethyl)amino)pyr ido[3,4-d]pyridazin-7(6H)-one formate] displayed a concentration for half-maximal inhibition (IC50) of 6.3 nM.

For `C[C@@H](Nc1nnc(N2CC[C@H](CO)C2)c2cc(=O)n(C3(C)CC3)cc12)c1cccc(C(F)(F)F)c1` [Example 179, 1-((S)-3-(hydroxymethyl)pyrrolidin-1-yl)-6-(1-methylcyclopropyl)-4-(((R)-1-(3-(trifluoromethyl)phenyl)ethyl)amino)pyr ido[3,4-d]pyridazin-7(6H)-one formate], 6.4 nM corresponded to half-maximal inhibition (IC50).

In turn, `C[C@@H](Nc1nnc(N2CCN(C)[C@@H](C)C2)c2cc(=O)n(C3(C)CC3)cc12)c1cccc(C(F)(F)F)c1` [Example 180, 1-((S)-3,4-dimethylpiperazin-1-yl)-6-(1-methylcyclopropyl)-4-(((R)-1-(3-(trifluoromethyl)phenyl)ethyl)amino)pyr ido[3,4-d]pyridazin-7(6H)-one formate] registered an IC50 of 7.2 nM.

Take `C[C@@H](Nc1nnc(N2CCN(C3CC3)CC2)c2cc(=O)n(C3(C)CC3)cc12)c1cccc(C(F)(F)F)c1` [Example 181, (R)-1-(4-cyclopropylpiperazin-1-yl)-6-(1-methylcyclopropyl)-4-((1-(3-(trifluoromethyl)phenyl)ethyl)amino)pyr ido[3,4-d]pyridazin-7(6H)-one formate]: the IC50 came out at 7.8 nM.

As to `C[C@@H](Nc1nnc(N2CC3(CCOCC3)C2)c2cc(=O)n(C3(C)CC3)cc12)c1cccc(C(F)F)c1F` [Example 182, (R)-4-((1-(3-(difluoromethyl)-2-fluorophenyl)ethyl)amino)-6-(1-methylcyclopropyl)-1-(7-oxa-2-azaspiro[3.5]nonan-2-yl)pyrido[3,4-d]pyridazin-7(6H)-one], the IC50 worked out at 5 nM.

Take `C[C@@H](Nc1nnc(N2CCC3(CCN(C)C3)C2)c2cc(=O)n(C3(C)CC3)cc12)c1cccc(C(F)F)c1F` (stereo partly drawn) [Example 183, 4-(((R)-1-(3-(difluoromethyl)-2-fluorophenyl)ethyl)amino)-1-(7-methyl-2,7-diazaspiro[4.4]nonan-2-yl)-6-(1-methylcyclopropyl) pyrido[3,4-d]pyridazin-7(6H)-one]: the IC50 was 4.9 nM.

Take `C[C@@H](Nc1nnc(N2CCC3(CCC3)CC2)c2cc(=O)n(C3(C)CC3)cc12)c1cccc(C(F)F)c1F` [Example 184, (R)-4-((1-(3-(difluoromethyl)-2-fluorophenyl)ethyl)amino)-6-(1-methylcyclopropyl)-1-(7-azaspiro[3.5]nonan-7-yl)pyrido[3,4-d]pyridazin-7(6H)-one]: the half-inhibitory concentration (IC50) was found to be 40.2 nM.

`C[C@@H](Nc1nnc(N2CCC3(CCCC3)CC2)c2cc(=O)n(C3(C)CC3)cc12)c1cccc(C(F)F)c1F` [Example 185, (R)-4-((1-(3-(difluoromethyl)-2-fluorophenyl)ethyl)amino)-6-(1-methylcyclopropyl)-1-(8-azaspiro[4.5]decan-8-yl)pyrido[3,4-d]pyridazin-7(6H)-one] gave an IC50 of 84.3 nM.

Molecule `C[C@@H](Nc1nnc(N2CCC3(CC2)CC3(F)F)c2cc(=O)n(C3(C)CC3)cc12)c1cccc(C(F)F)c1F` [Example 186, (R)-1-(1,1-difluoro-6-azaspiro[2.5]octan-6-yl)-4-((1-(3-(difluoromethyl)-2-fluorophenyl)ethyl)amino)-6-(1-methylcyclopropyl) pyrido[3,4-d]pyridazin-7(6H)-one] had a half-inhibitory concentration (IC50) of 31.1 nM.

In the case of `C[C@@H](Nc1nnc(N2CCC3(CC3)C2)c2cc(=O)n(C3(C)CC3)cc12)c1cccc(C(F)F)c1F` [Example 187, (R)-4-((1-(3-(difluoromethyl)-2-fluorophenyl)ethyl)amino)-6-(1-methylcyclopropyl)-1-(5-azaspiro[2.4]heptan-5-yl)pyrido[3,4-d]pyridazin-7(6H)-one], the half-inhibitory concentration (IC50) came out at 4.8 nM.

Molecule `C[C@@H](Nc1nnc(N2CC3CCCC3C2)c2cc(=O)n(C3(C)CC3)cc12)c1cccc(C(F)F)c1F` (stereo partly drawn) [Example 188, 4-(((R)-1-(3-(difluoromethyl)-2-fluorophenyl)ethyl)amino)-1-(hexahydrocyclopenta[c]pyrrol-2(1H)-yl)-6-(1-methylcyclopropyl) pyrido[3,4-d]pyridazin-7(6H)-one] returned a 50% inhibitory concentration (IC50) of 3.1 nM.

`C[C@@H](Nc1nnc(N2CC3C(C2)C3(C)C)c2cc(=O)n(C3(C)CC3)cc12)c1cccc(C(F)F)c1F` (stereo partly drawn) [Example 189, 4-(((R)-1-(3-(difluoromethyl)-2-fluorophenyl)ethyl)amino)-1-(6,6-dimethyl-3-azabicyclo[3.1.0]hexan-3-yl)-6-(1-methylcyclopropyl) pyrido[3,4-d]pyridazin-7(6H)-one] had an IC50 of 4.3 nM.

In turn, `C[C@@H](Nc1nnc(N2CC3(COC3)C2)c2cc(=O)n(C3(C)CC3)cc12)c1cccc(C(F)F)c1F` [Example 190, (R)-4-((1-(3-(difluoromethyl)-2-fluorophenyl)ethyl)amino)-6-(1-methylcyclopropyl)-1-(2-oxa-6-azaspiro[3.3]heptan-6-yl)pyrido[3,4-d]pyridazin-7(6H)-one] gave an IC50 of 4.2 nM. The IC50 values of the last two molecules are within 1.5-fold of each other.

`C[C@@H](Nc1nnc(N2CC3CCC(C2)N3C)c2cc(=O)n(C3(C)CC3)cc12)c1cccc(C(F)F)c1F` [Example 193]: half-maximal inhibition (IC50) was put at 4.3 nM.

In the case of `C[C@@H](Nc1nnc(N2CC3(CC(O)C3)C2)c2cc(=O)n(C3(C)CC3)cc12)c1cccc(C(F)F)c1F` [Example 196, (R)-4-((1-(3-(difluoromethyl)-2-fluorophenyl)ethyl)amino)-1-(6-hydroxy-2-azaspiro[3.3]heptan-2-yl)-6-(1-methylcyclopropyl) pyrido[3,4-d]pyridazin-7(6H)-one], the half-maximal inhibitory concentration (IC50) was 3.7 nM.

`C[C@@H](Nc1nnc(N2CCC3(C2)CS(=O)(=O)C3)c2cc(=O)n(C3(C)CC3)cc12)c1cccc(C(F)F)c1F` [Example 197, (R)-4-((1-(3-(difluoromethyl)-2-fluorophenyl)ethyl)amino)-1-(2,2-dioxido-2-thia-6-azaspiro[3.4]octan-6-yl)-6-(1-methylcyclopropyl) pyrido[3,4-d]pyridazin-7(6H)-one] registered a half-inhibitory concentration (IC50) of 5 nM.

Molecule `C[C@@H](Nc1nnc(N2CC3CCC(C2)O3)c2cc(=O)n(C3(C)CC3)cc12)c1cccc(C(F)F)c1F` [Example 198, 1-(8-oxa-3-azabicyclo[3.2.1]octan-3-yl)-4-(((R)-1-(3-(difluoromethyl)-2-fluorophenyl)ethyl)amino)-6-(1-methylcyclopropyl) pyrido[3,4-d]pyridazin-7(6H)-one] displayed an IC50 of 13.6 nM. This IC50 is about 2.7-fold higher than that of the molecule before.

The values above are taken from patent EP4722213A1, “NITROGEN-CONTAINING FUNCTIONAL GROUP-SUBSTITUTED PYRIDAZINOPYRIDONE DERIVATIVE AND USE THEREOF” (Sichuan Huiyu Pharmaceutical Co., Ltd., priority 2023, dated 2024).
